Measurements as given in patent US20260317332A1, “BICYCLIC HETEROCYCLE COMPOUNDS FOR THE TREATMENT OF CANCER” (Hoffmann-La Roche Inc., priority 2023, published 2026).

Legend:
[1] = biological target: T1, CD73 (Homo sapiens, UniProt P21589); assay: CD73 Cellular Assay; format: cell-based; design: 40 μL of MDA-MB-231 cells (ATCC, HTB-26, breast cancer); host or cells: MDA-MB-231; details: MDA-MB-231 cells; 200 μM AMP working solution; 45 min at 37° C.; malachite readout; read-out: Cellular IC50 against CD73
T1 sequence (P21589 27-574): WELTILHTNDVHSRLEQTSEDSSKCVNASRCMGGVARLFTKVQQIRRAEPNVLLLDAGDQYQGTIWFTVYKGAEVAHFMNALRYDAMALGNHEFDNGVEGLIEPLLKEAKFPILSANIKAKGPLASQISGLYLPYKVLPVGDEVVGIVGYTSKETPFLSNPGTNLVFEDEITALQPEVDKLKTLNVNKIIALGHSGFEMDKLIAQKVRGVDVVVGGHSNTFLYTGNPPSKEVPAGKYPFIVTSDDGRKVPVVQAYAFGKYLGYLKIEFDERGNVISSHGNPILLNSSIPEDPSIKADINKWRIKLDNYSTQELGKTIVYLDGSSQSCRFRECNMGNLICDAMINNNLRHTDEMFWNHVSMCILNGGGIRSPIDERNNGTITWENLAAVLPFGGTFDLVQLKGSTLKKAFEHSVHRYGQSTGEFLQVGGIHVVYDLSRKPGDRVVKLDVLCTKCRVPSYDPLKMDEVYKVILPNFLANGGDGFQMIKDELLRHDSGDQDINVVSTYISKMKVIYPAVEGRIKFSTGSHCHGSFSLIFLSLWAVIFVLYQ
Protocol: Compound serial dilution (1:3) was prepared with Echo 555 liquid handler (Labcyte) into the corresponding wells of a 384-well plate. 40 μL of MDA-MB-231 cells (ATCC, HTB-26, breast cancer, final concentration at 20,000 cells/mL) suspended in assay buffer (20 mM HEPES pH 7.4, 137 mM NaCl, 5.4 mM KCl, 1.3 mM CaCl2, 4.2 mM NaHCO3, 1 mg/mL glucose) were added into the corresponding wells of the plate. After incubating with compounds for 30 minutes, 40 μL of AMP working solution (200 μM AMP in assay buffer) was added into each well in the assay plate. The assay plate was then incubated in a 5% CO2 incubator (Thermo Fisher Scientific) at 37° C. for 45 min. After the reaction was completed, 50 μL of the supernatants was collected and transferred into a new 384 well plate. 10 μL of Malachite A was added to each well in the assay plate and incubated for 10 minutes. 10 μL of Malachite B was then added to each corresponding well of the plate and incubated for 30 minutes. Finally the absorbance value was read on the Envision plate reader at […]. Calculation percentage inhibition by using equation {% inhibition=100×[1−(X−MIN)/(MAX−MIN)]} where X equals to the well signal, Max equals signal of neutral control and MIN equals signal of inhibitor control.

[2] = tested on: CD4+ T cells; assay: T Cell Proliferation Assay: CD4+ T cell proliferation; format: cell-based; details: Homo sapiens, high AMP condition (200 μM AMP, 5 μM EHNA), CD3/CD28 beads, 72 hours, read-out: CD4+ T cell proliferation EC50 (rescue of proliferation)
Protocol: (§1) The purpose of this assay is to characterize the potency of inhibitors of CD73 in rescuing adenosine-mediated inhibition of T cell proliferation. CD4+ or CD8+ T cells were isolated from peripheral blood mononuclear cells (PBMCs, HemaCare) by immunomagnetic negative selection using EasySep™ Isolation Kit (STEMCELL Technologies) following the supplier's protocol. Pan T cells were pelleted by centrifugation at 300 gravitational force (g) for 5 minutes at room temperature and re-suspended in PBS. CellTrace™ Violet staining solution (Invitrogen) was added at 1:5,000 and incubated at 37° C. for 20 minutes, protected from light. Complete culture medium [RPMI-1640 (Gibco), 10% Fetal Bovine Serum (Gibco), 2 mM GlutaMAX (Gibco) and 1 mM Sodium Pyruvate (Gibco), 100 U/mL Penicillin-Streptomycin (Gibco) and MEM non-essential amino acids (NEAA) cell culture supplement (1:100, Gibco)] was then added, mixed, and incubated at 37° C. for 5 minutes. Cells were then pelleted by centrifugation at 300 g for 5 minutes at room temperature and re-suspended in fresh, pre-warmed complete culture medium. 50 μL of cells were seeded per well in 96 well u-bottom plates. 50 μL of CD3/CD28 beads-containing medium and 50 μL of media containing compounds were added into cells. 50 μL of media containing AMP and EHNA hydrochloride (Sigma-Aldrich) was added into cells at 200 μM and 5 μM final concentration, respectively. Cells were incubated for 72 hours at 37° C. in a 5% CO2 incubator. 200 μL of PBS was then added to each well and cells were centrifuged at 300 g, 4° C. for 10 minutes. The supernatant was discarded. 50 μL of Human TruStain FcX™ (Fc Receptor Blocking Solution, BioLegend) diluted 1:100 in PBS was added to each well, mixed gently and incubated for 20 minutes at 4° C. 50 μL of staining solution (BioLegend) was added to each well, mixed gently and incubated at 4° C. for 30 minutes. Cells were centrifuged at 300 g, 4° C. for 10 minutes and the supernatant was discarded. The cell pellets were washed with 250 μL of cell staining buffer and centrifuged at 300 g, 4° C. for 10 minutes. The supernatant was discarded and cells were re-suspended in 60 μL of cell staining buffer and analyzed on a flow cytometer.

[3] = tested on: CD8+ T cells; assay: T Cell Proliferation Assay: CD8+ T cell proliferation; format: cell-based; details: high AMP condition (200 μM AMP, 5 μM EHNA), CD3/CD28 beads, 72 hours, read-out: CD8+ T cell proliferation EC50 (rescue of proliferation)
Protocol: as §1

[4] = biological target: T1, CD73; assay: Human CD73 Biochemical Assay; details: 0.05 nM recombinant CD73; AMP 5.56 μM final; 10 min at room temperature; LC/MS adenosine readout; read-out: Enzymatic IC50 against human CD73
Protocol: The purpose of this assay is to identify and characterize inhibitors of human CD73 enzymatic activity. Compound serial dilution (1:3) was prepared with Echo 555 liquid handler (Labcyte) into the corresponding wells of a 384-well plate. 10 μL of enzyme working solution (containing 0.05 nM recombinant CD73 protein, 10 mM Tris pH 7.5, 100 mM NaCl, 0.01% BSA, 0.2 mM Octyl glucoside and 1 mM NaH2PO4) was added to the assay plate and incubated with compounds for 15 minutes at room temperature. After adding 15 μL of AMP working solution (Containing 10 mM Tris pH 7.5, 100 mM NaCl, 0.01% BSA, 0.2 mM Octyl glucoside, with 5.56 μM of AMP final concentration) and incubate for 10 min at room temperature. Stop the reaction by adding 75 μL of stop solution (5% TCA in H2O containing 250 nM 13C5-adenosine) to each well for 10 min incubation. After centrifugation, 75 μL of the mixture was transferred to a new 384-well plate for LC/MS analysis.
Samples from the 384-well plates, were loaded onto an autosampler deck, then injected with ADDA-LC-MS/MS. The aqueous mobile phase is 0.1% formic acid in water. The organic mobile phase is 0.1% formic acid in acetonitrile. Flow rate is maintained at 0.8 mL/minute using Shimadzu pumps. The column is ACE 5 Phenyl, 50×2.1 mm. The analysis was performed on a SCIEX triple quadrupole mass spectrometer operating in positive ion mode. The effluent from the HPLC column was directly introduced into the electrospray ionization (ESI). Multiple reaction monitoring (MRM) is used to determine analyte and internal standard (IS) responses. The MRM for adenosine is 268.1/136.1, for 13C5-Adenosine (IS) is 273.2/136.2. The data is calculated using the peak area ratio (PAR) semi-quantitative method.

`O=c1[nH]cc(-c2cc(N3C[C@H](Oc4ncc(C(F)(F)F)cn4)C(F)(F)C3)c3nccn3n2)c(=O)[nH]1` [Example G351, reference compound] gave an IC50 [1] of 3530 pM, an EC50 [2] of 8800 pM and an EC50 [3] of 8200 pM.
In the case of `C[C@H]1COC[C@@H]1Oc1cc([C@@H](Oc2nn(C)c3nnc(-c4c[nH]c(=O)[nH]c4=O)cc23)C(F)F)ccn1` (stereo in doubt) [Example 40, 5-[1-methyl-3-[(1R)-2,2-difluoro-1-[2-[(trans)-4-methyltetrahydrofuran-3-yl]oxy-4-pyridyl]ethoxy]pyrazolo[3,4-c]pyridazin-5-yl]-1H-pyrimidine-2,4-dione], the IC50 [1] is reported as 570 pM and the IC50 [4] is reported as 50 pM.
`Cn1nc(O[C@H](c2cc(OCC#N)ccn2)C(F)F)c2cc(-c3c[nH]c(=O)[nH]c3=O)nnc21` [Example 21, 2-[[2-[(1R)-1-[5-(2,4-dioxo-1H-pyrimidin-5-yl)-1-methyl-pyrazolo[3,4-c]pyridazin-3-yl]oxy-2,2-difluoro-ethyl]-4-pyridyl]oxy]acetonitrile] showed an IC50 [1] of 730 pM and an IC50 [4] of 90 pM.
For `COCCOc1cc([C@@H](Oc2nn(C)c3nnc(-c4c[nH]c(=O)[nH]c4=O)cc23)C(F)F)ccc1F` [Example 15, 5-[3-[(1R)-2,2-difluoro-1-[4-fluoro-3-(2-methoxyethoxy)phenyl]ethoxy]-1-methyl-pyrazolo[3,4-c]pyridazin-5-yl]-1H-pyrimidine-2,4-dione], the IC50 [1] was 880 pM and the IC50 [4] was 70 pM.
Compound `Cn1nc(O[C@H](c2ccnc(NC3CCC(F)(F)CC3)c2)C(F)F)c2cc(-c3c[nH]c(=O)[nH]c3=O)nnc21` [Example 32, 5-[3-[(1R)-1-[2-[(4,4-difluorocyclohexyl)amino]-4-pyridyl]-2,2-difluoro-ethoxy]-1-methyl-pyrazolo[3,4-c]pyridazin-5-yl]-1H-pyrimidine-2,4-dione] has an IC50 [1] of 380 pM and an IC50 [4] of 50 pM.
`C[C@H](OC1CC1)c1cc([C@@H](Oc2nn(C)c3nnc(-c4c[nH]c(=O)[nH]c4=O)cc23)C(F)F)ccn1` (single isomer, unassigned) [Example 37A] was tested, and the IC50 [1] was 870 pM and the IC50 [4] was 130 pM.
`Cn1nc(O[C@H](c2ccnc(OCC(C)(F)F)c2)C(F)F)c2cc(-c3c[nH]c(=O)[nH]c3=O)nnc21` [Example 16, 5-[3-[(1R)-1-[2-(2,2-difluoropropoxy)-4-pyridyl]-2,2-difluoro-ethoxy]-1-methyl-pyrazolo[3,4-c]pyridazin-5-yl]-1H-pyrimidine-2,4-dione] gave an IC50 [1] of 540 pM and an IC50 [4] of 40 pM.
`Cn1nc(O[C@H](c2cc(COC(F)(F)F)ccn2)C(F)F)c2cc(-c3c[nH]c(=O)[nH]c3=O)nnc21` (single isomer, unassigned) [Example 36A] showed an IC50 [1] of 620 pM and an IC50 [4] of 80 pM.
With `Cn1nc(O[C@H](c2ccnc(OCC(F)F)c2)C(F)F)c2cc(-c3n[nH]c(=O)[nH]c3=O)nnc21` [Example 13A, 6-[3-[(1R)-1-[2-(2,2-difluoroethoxy)-4-pyridyl]-2,2-difluoro-ethoxy]-1-methyl-pyrazolo[3,4-c]pyridazin-5-yl]-2H-1,2,4-triazine-3,5-dione] the IC50 [1] was 970 pM and the IC50 [4] was 20 pM.
`Cn1nc(O[C@H](c2cc(OCC(F)F)ccn2)C(F)F)c2cc(-c3c[nH]c(=O)[nH]c3=O)nnc21` [Example 7, 5-[3-[(1R)-1-[4-(2,2-difluoroethoxy)-2-pyridyl]-2,2-difluoro-ethoxy]-1-methyl-pyrazolo[3,4-c]pyridazin-5-yl]-1H-pyrimidine-2,4-dione] showed an IC50 [1] of 590 pM and an IC50 [4] of 80 pM.
`Cn1nc(O[C@H](c2cncc(OCC(F)(F)F)c2)C(F)F)c2cc(-c3c[nH]c(=O)[nH]c3=O)nnc21` (single isomer, unassigned) [Example 8A] showed an IC50 [1] of 660 pM and an IC50 [4] of 70 pM.
Compound `Cn1nc(O[C@H](c2cc(OCC3(C(F)(F)F)CC3)ccn2)C(F)F)c2cc(-c3c[nH]c(=O)[nH]c3=O)nnc21` [Example 23, 5-[3-[(1R)-2,2-difluoro-1-[4-[[1-(trifluoromethyl)cyclopropyl]methoxy]-2-pyridyl]ethoxy]-1-methyl-pyrazolo[3,4-c]pyridazin-5-yl]-1H-pyrimidine-2,4-dione] has an IC50 [1] of 740 pM and an IC50 [4] of 80 pM.
`C[C@@H](Nc1cc([C@@H](Oc2nn(C)c3nnc(-c4c[nH]c(=O)[nH]c4=O)cc23)C(F)F)ccn1)C(F)(F)F` [Example 27, 5-[3-[(1R)-2,2-difluoro-1-[2-[[(1R)-2,2,2-trifluoro-1-methyl-ethyl]amino]-4-pyridyl]ethoxy]-1-methyl-pyrazolo[3,4-c]pyridazin-5-yl]-1H-pyrimidine-2,4-dione] gave an IC50 [1] of 480 pM and an IC50 [4] of 40 pM.
`C[C@@H](OC1CC1)c1cc([C@@H](Oc2nn(C)c3nnc(-c4c[nH]c(=O)[nH]c4=O)cc23)C(F)F)ccn1` (single isomer, unassigned) [Example 37B] gave an IC50 [1] of 840 pM and an IC50 [4] of 90 pM.
